Test results: publication PMC6604316 (Virology Journal, 2019)
Read-outs that look alike come from different tables or passages of the source. Marks after values point to notes of the source that are not given here.

Target: NA of A/Texas/12/2007 (H3N2 119 V) (Influenza A virus (A/Texas/12/2007(H3N2)), UniProt D1FVK3, I119V)
Test: biochemical
Format: biochemical

Compound | IC50 | Fold change | IC50 (read-out: Mean IC50 (nM) ± SD)
CC(=O)N[C@H]1[C@H]([C@H](O)[C@H](O)CO)OC(C(=O)O)=C[C@@H]1N=C(N)N [Zanamivir, zanamivir] | 1.56 ± 0.55 nM | – | –
oseltamivir carboxylate | – | 520.08^c fold | 62.4 ± 2.16 nM
